# Results reported in patent publication US20260256751A1, “COMBINATION OF BETA-2-ADRENERGIC RECEPTOR AGONISTS AND GLP-1 RECEPTOR AGONISTS FOR USE IN TREATING HYPERGLYCAEMIA” (ATROGI AB, priority 2023, published 2026).
# What was measured:
# [1] = system: differentiated L6-myotubes; experiment: cAMP production relative to isoprenaline (Biological example 2 of WO 2019/053427); assay type: cell-based; settings: 0.25 h, compound at 10 μM, activity relative to isoproterenol at 10 μM
# In short: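 Values are cAMP levels relative to isoprenaline at equal concentration (final 1×10^−5 M for both). Stimulation lasted 15 min in differentiated L6 myotubes, using HBSS buffer (pH 7.4) containing 1 mM IBMX, 5 mM HEPES and 1% BSA.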
# [2] = system: differentiated L6-myotubes; experiment: Glucose uptake screen (Biological example 1 of WO 2019/053427); assay type: cell-based; settings: compound at 10 μM, activity relative to isoproterenol at 10 μM; for Emax at 10 µM: read-out: Biological example 1 of WO 2019/053427 (GU)
# In short: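 Uptake was read out as ^3H-2-deoxyglucose (50 nM, 10 min) radioactivity in NaOH lysates. Beforehand, overnight-starved, differentiated L6 myotubes received compound at 1×10^−5 M with ICI-118551 present for 1 h 40 min, followed by fresh agonist for a further 20 min in glucose-free medium.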
SMILES,Emax at 10 µM [1] [%],Emax at 10 µM [2] [%],Biological example 1 of WO 2019/053427 (GU) [2]
"CC(C)(C[C@H]1CC[C@@H](N)CC1)NC[C@H](O)c1cccc(F)c1 [Compound 456, (R)-2-{1,1-dimethyl-2-[(1s,4S)-4-aminocyclohexyl]ethylamino}-1-(m-fluorophenyl)-1-ethanol]",< 25,> 75,–
"CS(=O)(=O)N(Cc1ccccc1)c1ccc(CC23CCC([C@H](O)c4cccc(F)c4)(CC2)N3)cc1 [Compound 473, (R)-[4-({p-[(benzyl)-N-mesylamino]phenyl}methyl)-7-azabicyclo[2.2.1]hept-1-yl](m-fluorophenyl)methanol]",< 25,25 to 50,–
"CCC[C@@H]1CCC[C@H]([C@H](O)c2ccc(F)cc2)N1 [Compound 94, (R)-[(2R,6R)-6-propyl-2-piperidyl](p-fluorophenyl)methanol]",< 25,50 to 75,–
"O[C@H](c1cncc(F)c1)C12CCC(COCc3ccc(F)cc3)(CC1)N2 [Compound 443, (R)-(4-{[(p-fluorophenyl)methoxy]methyl}-7-azabicyclo[2.2.1]hept-1-yl)(5-fluoro-3-pyridyl)methanol]",25 to 50,> 75,–
"CNS(=O)(=O)[C@H]1CC[C@@H](CC(C)(C)NC[C@H](O)c2cccc(F)c2)CC1 [Compound 477, (R)-2-{1,1-dimethyl-2-[(1s,4S)-4-(methylaminosulfonyl)cyclohexyl]ethylamino}-1-(m-fluorophenyl)-1-ethanol]",< 25,50 to 75,–
"CC(C)(C[C@H]1CC[C@@H](C(=O)O)CC1)NC[C@H](O)c1cccc(F)c1 [Compound 331, (1S,4s)-4-{2-[(R)-2-(m-fluorophenyl)-2-hydroxyethylamino]-2-methylpropyl}cyclohexanecarboxylic acid]",< 25,25 to 50,–
"O[C@H](c1cccc(F)c1)C12CCC(Cc3ccc(OC(F)(F)F)cc3)(CC1)N2 [Compound 501, (R)-(m-fluorophenyl){4-[(p-trifluoromethoxyphenyl)methyl]-7-azabicyclo[2.2.1]hept-1-yl}methanol]",< 25,< 25,–
"CS(=O)(=O)N[C@H]1CC[C@@H](CNC[C@H](O)c2cncc(F)c2)CC1 [Compound 314, (R)-1-(5-fluoro-3-pyridyl)-2-({[(1s,4S)-4-(mesylamino)cyclohexyl]methyl}amino)-1-ethanol]",< 25,50 to 75,–
"CO[C@@H]1CCC[C@H](C(C)(C)NC[C@H](O)c2cccc(F)c2)C1 [Compound 255, (R)-2-{1-[(1S,3R)-3-methoxycyclohexyl]-1-methylethylamino}-1-(m-fluorophenyl)-1-ethanol]",< 25,> 75,–
"CCCCNC[C@H](O)c1cccc(F)c1F [Compound 77, (R)-2-(butylamino)-1-(2,3-difluorophenyl)-1-ethanol]",< 25,> 75,–
"CC(C)(CC[C@H]1CC[C@H](O)CC1)NC[C@H](O)c1ccccc1F [Compound 319, (R)-2-{1,1-dimethyl-3-[(1r,4S)-4-hydroxycyclohexyl]propylamino}-1-(o-fluorophenyl)-1-ethanol]",< 25,> 75,–
"CCC[C@H]1CCC[C@H]([C@@H](O)c2cccc(O)c2)N1 [Compound 155, (S)-[(2R,6S)-6-propyl-2-piperidyl](m-hydroxyphenyl)methanol]",< 25,< 25,–
"CO[C@H]1CC[C@H](C[C@]2(C)CC[C@H]([C@H](O)c3cccc(F)c3)N2)CC1 [Compound 364, (R)-[(2R,5S)-5-methyl-5-{[(1r,4S)-4-methoxycyclohexyl]methyl}-2-pyrrolidinyl](m-fluorophenyl)methanol]",50 to 75,> 75,–
"O[C@H](c1cncc(F)c1)[C@H]1CC[C@@H](Cc2ccc(Cl)cc2)N1 [Compound 404, (R)-{(2R,5S)-5-[(p-chlorophenyl)methyl]-2-pyrrolidinyl}(5-fluoro-3-pyridyl)methanol]",< 25,> 75,–
"C[C@H]1CC[C@@H]([C@@H](O)c2ccccc2)N1 (racemic) [Compound 39, Racemic mixture of (R)-[(2R,5R)-5-methyl-2-pyrrolidinyl]phenylmeth-anol and (S)-[(2S,5S)-5-methyl-2-pyrrolidinyl]phenylmeth-anol]",< 25,50 to 75,–
"O[C@H](c1cccc(F)c1)[C@H]1CCC2(CC2)N1 [Compound 170, (R)-{(R)-4-aza-5-spiro[2.4]heptyl}(m-fluorophenyl)methanol]",< 25,50 to 75,–
"CC(=O)N[C@H]1CC[C@H](CNC[C@H](O)c2cncc(F)c2)CC1 [Compound 309, N-[(1R,4r)-4-{[(R)-2-(5-fluoro-3-pyridyl)-2-hydroxyethylamino]methyl}cyclohexyl]acetamide]",< 25,50 to 75,–

SMILES,Emax at 10 µM [1] [%],Emax at 10 µM [2] [%],Biological example 1 of WO 2019/053427 (GU) [2]
"CC1(C)C[C@H]([C@H](O)c2cccc(Cl)c2)N1 [Compound 230, (R)-[(R)-4,4-dimethyl-2-azetidinyl](m-chlorophenyl)methanol]",< 25,> 75,–
"CC(C)(C[C@H]1CC[C@@H](N)CC1)NC[C@@H](O)c1cccc(C#N)n1 [Compound 416, 6-[(R)-2-{1,1-dimethyl-2-[(1s,4S)-4-aminocyclohexyl]ethylamino}-1-hydroxyethyl]-2-pyridinecarbonitrile]",< 25,50 to 75,–
"CC1(C)C[C@H]([C@H](O)c2cncc(F)c2)N1 [Compound 214, (R)-[(R)-4,4-dimethyl-2-azetidinyl](5-fluoro-3-pyridyl)methanol]",< 25,> 75,–
"CC12CCC([C@H](O)c3cncc(F)c3)(CC1)N2 [Compound 185, (R)-(5-fluoro-3-pyridyl)(4-methyl-7-azabicyclo[2.2.1]hept-1-yl)methanol]",< 25,> 75,–
"CC(C)(C[C@H]1CC[C@@H](N)CC1)NC[C@H](O)c1cncc(F)c1 [Compound 466, (R)-2-{1,1-dimethyl-2-[(1s,4S)-4-aminocyclohexyl]ethylamino}-1-(5-fluoro-3-pyridyl)-1-ethanol]",< 25,50 to 75,–
"CC(=O)N[C@H]1CC[C@H](CC(C)(C)NC[C@H](O)c2cccc(C(F)(F)F)n2)CC1 [Compound 460, N-[(1S,4r)-4-(2-{(S)-2-hydroxy-2-[6-(trifluoromethyl)-2-pyridyl]ethylamino}-2-methylpropyl)cyclohexyl]acetamide]",< 25,50 to 75,–
"CCCCNCC(O)c1ccc(O)c(Cl)c1 (centres unmarked) [Compound 20, 2-(butylamino)-1-(3-chloro-4-hydroxyphenyl)-1-ethanol]",< 25,25 to 50,–
"CO[C@H]1CC[C@H](C[C@@H]2CC[C@H]([C@H](O)c3cccc(F)c3)N2)CC1 [Compound 326, (R)-[(2R,5S)-5-{[(1r,4S)-4-methoxycyclohexyl]methyl}-2-pyrrolidinyl](m-fluorophenyl)methanol]",< 25,> 75,–
"CO[C@H]1CC[C@H](CC(C)(C)NC[C@H](O)c2cccc(F)c2)CC1 [Compound 249, (R)-2-{1,1-dimethyl-2-[(1r,4R)-4-methoxycyclohexyl]ethyl-amino}-1-(m-fluorophenyl)-1-ethanol]",< 25,> 75,–
"CCC[C@@H]1CC[C@H]([C@H](O)c2cncc(F)c2)N1 [Compound 160, (R)-[(2R,5R)-5-propyl-2-pyrrolidinyl](5-fluoro-3-pyridyl)methanol]",< 25,–,+++ (more than 75% of that of isoproterenol at 10 μM)
"CC(C)(C[C@H]1CC[C@H](NS(=O)(=O)C2CC2)CC1)NC[C@H](O)c1cccc(F)c1 [Compound 496, (R)-2-{1,1-dimethyl-2-[(1r,4R)-4-(cyclopropylsulfonylamino)cyclohexyl]ethylamino}-1-(m-fluorophenyl)-1-ethanol]",< 25,50 to 75,–
"COc1ccc(CCC23CCC([C@H](O)c4cncc(F)c4)(CC2)N3)cc1 [Compound 542, (R)-(5-fluoro-3-pyridyl){4-[2-(p-methoxyphenyl)ethyl]-7-azabicyclo[2.2.1]hept-1-yl}methanol]",25 to 50,50 to 75,–
"CCC[C@H]1CCCC[C@@H]([C@H](O)c2cncc(F)c2)N1 [Compound 234, (R)-[(2S,7S)-7-propyl-2-azepanyl](5-fluoro-3-pyridyl)methanol]",< 25,> 75,–
"CC(C)(C)NC[C@H](O)c1ccc(Cl)cn1 [Compound 147, (S)-2-(tert-butylamino)-1-(5-chloro-2-pyridyl)-1-ethanol]",< 25,25 to 50,–
"CCC[C@H]1CCC[C@H]([C@@H](O)c2cccc(F)c2)N1 [Compound 70, (S)-[(2R,6S)-6-propyl-2-piperidyl](m-fluorophenyl)methanol]",< 25,50 to 75,–
"CN([C@H]1CC[C@@H](CC(C)(C)NC[C@H](O)c2cncc(F)c2)CC1)S(C)(=O)=O [Compound 520, (R)-2-{1,1-dimethyl-2-[(1s,4S)-4-(N-mesyl-N-methylamino)cyclohexyl]ethylamino}-1-(5-fluoro-3-pyridyl)-1-ethanol]",< 25,50 to 75,–
"CC1(C)CCC[C@H]([C@H](O)c2cccc(Cl)c2)N1 [Compound 165, (R)-[(R)-6,6-dimethyl-2-piperidyl](m-chlorophenyl)methanol]",< 25,25 to 50,–
